For two compounds, Sweetness results are on record in US20230142789A1, “A SWEETENER OR SWEETNESS ENHANCER COMPOSITION” (ANALYTICON DISCOVERY GMBH, priority 2020, published 2023).

This experiment can be described thus: Organoleptic test of the compounds against sucrose. The experiment is classed as in vivo. The arrangement: key: 3: sweeter than the control solution; 2: sweetness comparable with the control solution; 1: less sweet than the control solution but still sweet. The note with it: 0.4 mg/ml (400 ppm) in non-carbonated mineral water vs sucrose 20 g/l; panel of 3-4 panelists. How it is done: The isolated pure compound was dissolved in non-carbonated mineral water (“Evian”) in a concentration of 0.4 mg/ml (400 ppm). The sweet taste of each sample was compared by a panel of 3-4 panelists with a solution of sucrose in a concentration of 20 g/I.

As for `C[C@H](CC[C@@H](O[C@@H]1O[C@H](CO[C@@H]2O[C@H](CO)[C@@H](O)[C@H](O)[C@H]2O)[C@@H](O)[C@H](O)[C@H]1O[C@@H]1O[C@H](CO)[C@@H](O)[C@H](O)[C@H]1O)C(C)(C)O)[C@H]1CC[C@@]2(C)[C@@H]3CC=C4C(CC[C@H](O[C@@H]5O[C@H](CO[C@@H]6O[C@H](CO[C@@H]7O[C@H](CO)[C@@H](O)[C@H](O)[C@H]7O)[C@@H](O)[C@H](O)[C@H]6O)[C@@H](O)[C@H](O)[C@H]5O)C4(C)C)[C@]3(C)[C@H](O)C[C@]12C` (some centres unmarked) [Mogroside Via], the Sweetness is 3.
In the case of “11-Oxoisomogroside V [11-Isomogroside V]” it was 3.
